In US5731452A, “7-thiaprostaglandins and method of production thereof” (Teijin Limited, priority 1994, dated 1998) one finds IC50 data, which are given here for 50 compounds.

The first assay has as its system cell migration induced by MCP-1 in human promonocytic leukemia cell line, THP-1. In words: Activity for inhibiting cell migration induced by MCP-1 (THP-1 cells). The settings on record: 20 ng/ml recombinant human MCP-1, 37° C., two hours. The assay is classed as cell-based. As for the experimental part:
The cell migration induced by the monocyte chemoattractant protein MCP-1/MCAF was measured for the purpose of investigating the activity of the tested compounds shown in Table 1 in inhibiting cell migration by the following manner in accordance with the method of Falk et al. (J. Immunol. Methods, 33, 239-247 (1980)) using human promonocytic leukemia cell line, THP-1 (ATCC TIB203). That is, THP-1 cells diluted to 2×10^6 /ml by 10% fetal calf serum: FCS-containing RPMI-1640 medium (made by Flow Laboratories) were added to the upper chamber (200 μl) of the 96-well microchemotaxis chamber (made by Neuroprobe Inc.) while recombinant human MCP-1 (made by Peprotech Co.) diluted by the same medium to a final concentration of 20 ng/ml was added to the bottom chamber (35 μl). A polycarbonate filter (pore size of 5 μm, PVP-free, made by Neuroprobe Co) was affixed between the two. Incubation was performed at 37° C. in the presence of 5% CO2 for two hours. The filter was taken out, then the cells migrating to the bottom surface of the filter were fixed and stained by a Diff Quick solution (made by International Reagents Co.), then were measured by a plate reader (made by Molecular Device Co.) at a measurement wavelength of 550 nm. The mean value of three wells was determined and used as the indicator of the number of the migrating cells. At this time, the text compounds were added at various concentrations along with the THP-1 cells to the top chambers and the activity in inhibiting cell migration was determined. The percent of inhibition of cell migration was found by dividing the {(number of migrating cells caused by the MCP-1 added to the bottom chamber in the case of the test compound being added to the top chamber)--(number of migrating cells in the case of no test compound being added to the top chamber and no MCP-1 being added to the bottom chamber)} by the {(number of migrating cells caused by the MCP-1 added to the bottom chamber in the case of no test compound being added to the top chamber)--(number of migrating cells in the case of no test compound being added to the top chamber and no MCP-1 being added to the bottom chamber)}.
Take `CCCC(=O)OC1=C(SCCCCCC(=O)OC)[C@@H](/C=C/C(O)Cc2ccc(Cl)cc2)[C@H](O)C1` (some centres unmarked) [drawing 166]: the concentration for half-maximal inhibition (IC50) is less than 1 nM.

Regarding `CCCC(=O)OC1=C(SCCCCCC(=O)OC)[C@@H](/C=C/C(O)C(C)c2ccccc2)[C@H](O)C1` (some centres unmarked) [drawing 139], the half-inhibitory concentration (IC50) is 6 nM.

Consider `CCCC(=O)OC1=C(SCCCCCC(=O)OC)[C@@H](/C=C/C(O)Cc2ccc([N+](=O)[O-])cc2)[C@H](O)C1` (some centres unmarked) [drawing 164], for which the IC50 was 3.6 nM.

As for `CCCC(=O)OC1=C(SCCCCCC(=O)OC)[C@@H](/C=C/C(O)Cc2ccsc2)[C@H](O)C1` (some centres unmarked) [drawing 152], the IC50 was found to be 0.08 nM.

On to `CCCC(=O)OC1=C(CCCCCCC(=O)OC)[C@@H](/C=C/C(O)Cc2ccccc2)[C@H](O)C1` (some centres unmarked) [drawing 167], for which the IC50 worked out at 4000 nM.

Take `CCCC(=O)OC1=C(SCCCCCC(=O)OC)[C@@H](/C=C/C(O)C(C)c2ccccc2)[C@H](O)C1` (some centres unmarked) [drawing 140]: the IC50 stood at 0.021 nM.

Consider `CCCC(=O)OC1=C(SCCCCCC(=O)OC)[C@@H](/C=C/C(O)C(C)(C)c2ccccc2)[C@H](O)C1` (some centres unmarked) [drawing 135], for which the 50% inhibitory concentration (IC50) stood at 100 nM.

Turning to `CCCC(=O)OC1=C(SCCCCCC(=O)OC)[C@@H](/C=C/C(O)Cc2cccc(OC)c2)[C@H](O)C1` (some centres unmarked) [drawing 158], the IC50 came out at 2.3 nM.

For `CCCC(=O)OC1=C(SCCCCCC(=O)OC)[C@@H](/C=C/C(O)C(C)(C)c2ccccc2)[C@H](O)C1` (some centres unmarked) [drawing 136], the IC50 was found to be 13 nM.

Consider `CCCC(=O)OC1=C(SCCCCCC(=O)OC)[C@@H](/C=C/C(O)Cc2cccc(C)c2)[C@H](O)C1` (some centres unmarked) [drawing 154], for which the IC50 amounted to 1.2 nM.

Consider `CCCC(=O)OC1=C(SCCCCCC(=O)OC)[C@@H](/C=C/C(O)Cc2ccc(C)cc2)[C@H](O)C1` (some centres unmarked) [drawing 149], for which the IC50 is 100 nM.

For `CCCC(=O)OC1=C(SCCCCCC(=O)OC)[C@@H](/C=C/C(O)Cc2cccc(C(=O)OC)c2)[C@H](O)C1` (some centres unmarked) [drawing 159], the IC50 amounted to 230 nM.

As to `CCCC(=O)OC1=C(SCCCCCC(=O)OC)[C@@H](/C=C/C(O)Cc2ccc(Cl)cc2)[C@H](O)C1` (some centres unmarked) [drawing 165], the IC50 is less than 100 nM.

As to `CCCC(=O)OC1=C(SCCCCCC(=O)OC)[C@@H](/C=C/C(O)CCCc2ccccc2)[C@H](O)C1` (some centres unmarked) [drawing 146], the half-inhibitory concentration (IC50) worked out at 300 nM.

With `CCCC(=O)OC1=C(SCCCCCC(=O)OC)[C@@H](/C=C/C(O)Cc2cccc(C)c2)[C@H](O)C1` (some centres unmarked) [drawing 153], the IC50 came out at 600 nM.

Consider `CCCC(=O)OC1=C(SCCCCCC(=O)OC)[C@@H](/C=C/C(O)C(c2ccccc2)c2ccccc2)[C@H](O)C1` (some centres unmarked) [drawing 142], for which the IC50 amounted to 1300 nM.

With `CCCC(=O)OC1=C(SCCCCCC(=O)OC)[C@@H](/C=C/C(O)C(c2ccccc2)c2ccccc2)[C@H](O)C1` (some centres unmarked) [drawing 143], the IC50 is greater than 5000 nM.

For the compound `CCCC(=O)OC1=C(SCCCCCC(=O)OC)[C@@H](/C=C/C(O)CCCc2ccccc2)[C@H](O)C1` (some centres unmarked) [drawing 147], the IC50 worked out at 4.3 nM.

Take `CCCC(=O)OC1=C(SCCCCCC(=O)OC)[C@@H](/C=C/C(O)Cc2cccc(Cl)c2)[C@H](O)C1` (some centres unmarked) [drawing 155]: the IC50 came to 8 nM.

For `CCCC(=O)OC1=C(CCCCCCC(=O)OC)[C@@H](/C=C/C(O)Cc2ccccc2)[C@H](O)C1` (some centres unmarked) [drawing 168], the IC50 stood at 5 nM.

As for `CCCC(=O)OC1=C(SCCCCCC(=O)OC)[C@@H](/C=C/C(O)Cc2ccccc2C)[C@H](O)C1` (some centres unmarked) [drawing 161], the IC50 stood at 190 nM.

For the compound `CCCC(=O)OC1=C(SCCCCCC(=O)OC)[C@@H](/C=C/C(O)Cc2ccsc2)[C@H](O)C1` (some centres unmarked) [drawing 151], the IC50 worked out at 90 nM.

Turning to `CCCC(=O)OC1=C(SCCCCCC(=O)OC)[C@@H](/C=C/C(O)Cc2ccc(C)cc2)[C@H](O)C1` (some centres unmarked) [drawing 148], the IC50 was greater than 10000 nM.

Consider `CCCC(=O)OC1=C(SCCCCCC(=O)OC)[C@@H](/C=C/C(O)Cc2ccc([N+](=O)[O-])cc2)[C@H](O)C1` (some centres unmarked) [drawing 163], for which the IC50 is less than 100 nM.

Regarding `CCCC(=O)OC1=C(SCCCCCC(=O)OC)[C@@H](/C=C/C(O)Cc2ccccc2C)[C@H](O)C1` (some centres unmarked) [drawing 162], the IC50 was found to be 4.4 nM.

Turning to `CCCC(=O)OC1=C(SCCCCCC(=O)OC)[C@@H](/C=C/C(O)Cc2cccc(Cl)c2)[C@H](O)C1` (some centres unmarked) [drawing 156], the IC50 is 0.4 nM.

Take `CCCC(=O)OC1=C(SCCCCCC(=O)OC)[C@@H](/C=C/C(O)Cc2cccc(C(=O)OC)c2)[C@H](O)C1` (some centres unmarked) [drawing 160]: the IC50 was found to be 2.3 nM.

For the compound `CCCC(=O)OC1=C(SCCCCCC(=O)OC)[C@@H](/C=C/C(O)Cc2cccc(OC)c2)[C@H](O)C1` (some centres unmarked) [drawing 157], the half-inhibitory concentration (IC50) was found to be 33 nM.

Still in this assay, the particulars now being: Homo sapiens, THP-1, 2 h, 20 ng/ml recombinant human MCP-1, 37° C., two hours.
In the case of `CCCCC(C)(O)C/C=C/[C@@H]1C(SCCCCCC(=O)OC)=C(OC(=O)CCC)C[C@H]1O` (some centres unmarked), the 50% inhibitory concentration (IC50) is 1.7 nM.

For the compound `CCCC(=O)OC1=C(SCCCCCC(=O)OC)[C@@H](/C=C/C(O)[C@H](C)c2ccccc2)[C@H](O)C1` (some centres unmarked) [drawing 137], the concentration for half-maximal inhibition (IC50) is 3 nM.

As for `CCCC(=O)OC1=C(SCCCCCC(=O)OC)[C@@H](/C=C/[C@@H](O)CCOCC)[C@H](O)C1`, the half-maximal inhibitory concentration (IC50) is 120 nM.

Take `CCCC(=O)OC1=C(SCCCCCC(=O)OC)[C@@H](/C=C/C(O)C2CCCCC2)[C@H](O)C1` (some centres unmarked): the IC50 worked out at 100 nM.

With `CCCC(=O)OC1=C(SCCCCCC(=O)OC)[C@@H](/C=C/C(O)Cc2ccccc2)[C@H](O)C1` (some centres unmarked) [drawing 131], the IC50 was 8.3 nM.

As for `CCCCC(C)C[C@H](O)/C=C/[C@@H]1C(SCCCOCC(=O)OC)=C(OC(=O)CCC)C[C@H]1O` (some centres unmarked) [drawing 141], the IC50 turned out to be 2.1 nM.

As to `CCCC(=O)OC1=C(SCCCCCC(=O)OC)[C@@H](/C=C/C(O)c2ccccc2)[C@H](O)C1` (some centres unmarked), the IC50 was greater than 1000 nM.

`CCCCC(C)C[C@H](O)/C=C/[C@@H]1C(SCCC/C=C/C(=O)OC)=C(OC(=O)CCC)C[C@H]1O` (some centres unmarked): the concentration for half-maximal inhibition (IC50) stood at 6 nM.

For the compound `CCCCC(C)C[C@H](O)/C=C/[C@@H]1C(SCCCCCC(=O)OC)=C(OC(=O)c2ccccc2)C[C@H]1O` (some centres unmarked) [drawing 129], the IC50 was found to be 810 nM.

Take `CCCCCC(O)CC[C@@H]1C(SCCCCCC(=O)OC)=C(OC(=O)CCC)C[C@H]1O` (some centres unmarked): the IC50 was determined as 0.14 nM.

For the compound `CCCC(=O)OC1=C(SCCCCCC(=O)OC)[C@@H](/C=C/C(O)CCc2ccccc2)[C@H](O)C1` (some centres unmarked), the IC50 is 8.5 nM.

Consider `CCCC(=O)OC1=C(SCCCCCC(=O)OC)[C@@H](/C=C/[C@@H](O)C2CCCCC2)[C@H](O)C1` [drawing 123], for which the IC50 was 2.5 nM.

Regarding `CCCCC[C@H](O)/C=C/[C@@H]1C(SCCCCCC(=O)OC)=C(OC(=O)[C@H](Cc2ccccc2)NC(=O)OCc2ccccc2)C[C@H]1O`, the IC50 came to 0.22 nM.

Turning to `CCCCC[C@H](O)/C=C/[C@@H]1C(SCCCCCC(=O)O)=C(OC(=O)CCC)C[C@H]1O` [drawing 126], the IC50 is 0.81 nM.

Regarding `CCCC(=O)OC1=C(SCCCCCC(=O)OC)[C@@H](/C=C/[C@@H](O)Cc2ccccc2)[C@H](O)C1`, the IC50 is 1.1 nM.

For the compound `CCCC(=O)OC1=C(SCCCCCC(=O)OC)[C@@H](/C=C/[C@@H](O)C2CCCC2)[C@H](O)C1` [drawing 121], the IC50 amounted to 0.51 nM.

The test system of another assay is rat platelet. Briefly: Rat platelet aggregation inhibiting activity. It is filed as cell-based. The settings on record: rat platelet rich plasma; adenosine 2-phosphate induced; 37° C., one minute. The method, then:
Wistar rats (males, approximately 400 g) were made to fast for one day, the entire blood was removed from the chest artery under anesthesia by ether, then a 1/10 volume of 3.8% aqueous solution of sodium citrate was added and immediately mixed in. The solution was centrifuged at 1000 rpm for 10 minutes, then the upper layer was used as the platelet rich plasma. The lower layer was centrifuged at 3000 rpm for 10 minutes and the upper layer of that was used as the platelet poor plasma. The platelet rich plasma was diluted by the platelet poor plasma to give a number of platelets of 3.5×10^8 /mm^3. This was used for the measurement. Note that the measurement of the platelets was performed using an automatic blood cell counter MEK-4500 (Nihon Koden). The measurement of the platelet aggregation was performed by measuring the turbidity using an NBS HEMA TRACER 801 (M.C. Medical). 90 μl of the platelet solution was inserted in a cuvette, then 5 μl each of the test compounds was added to give the target final concentration. The result was heated for one minute at 37° C., then 5 μl of a 100 μM aqueous solution of adenosine 2-phosphate (M.C. Medical) was added to induce platelet aggregation. The aggregation inhibiting activity was found from the following formula.
Aggregation inhibiting rate (%)={1-(maximum change of turbidity at time of
addition of drug)/(maximum change of turbidity at time of non-addition of
Further, the concentration of the compound giving 50% inhibition was used as the IC50.
As for `CCCCOC(=O)CCCCCSC1=C(OC(=O)CCC)C[C@@H](O)[C@@H]1/C=C/[C@@H](O)CC(C)CCCC` (some centres unmarked), the IC50 came to 221 nM.

On to `CCCCC(C)C[C@H](O)/C=C/[C@@H]1C(SCCCCCC(=O)OC)=C(OC(=O)c2ccccc2)C[C@H]1O` (some centres unmarked) [drawing 179], for which the 50% inhibitory concentration (IC50) came to 700 nM.

Consider `CCCC(=O)OC1=C(SCCCCCC(=O)OC)[C@@H](/C=C/C(O)CCCc2ccccc2)[C@H](O)C1` (some centres unmarked) [drawing 180], for which the IC50 is 290 nM.

`CCCCC(C)C[C@H](O)/C=C/[C@@H]1C(SCCCCCC(=O)OC)=C(OC(=O)C(C)C)C[C@H]1O` (some centres unmarked) came in with an IC50 of 500 nM.

With `CCCCC(C)C[C@H](O)/C=C/[C@@H]1C(SCCCCCC(=O)OC)=C(OC(=O)C(C)(C)C)C[C@H]1O` (some centres unmarked), half-maximal inhibition (IC50) was put at 1280 nM.

`CCCC(=O)OC1=C(SCCCCCC(=O)OC)[C@@H](/C=C/C(O)CC(C)C)[C@H](O)C1` (some centres unmarked) had an IC50 of 380 nM.
